A melting point compilation (Tetko et al.; mined from patent text by program, amines drawn as free bases though some values may be those of a salt)

SMILES	melting point
CC1(C)CC(=O)Nc2ccc(-c3cccc(C#N)c3)cc21	190 to 192 °C
Cc1cn2cc(Cl)cc(Cl)c2n1	156 to 158 °C
CC(=O)SCC(=O)c1cc(S(=O)(=O)N(C)C)ccc1Cl	84 to 88 °C
N#Cc1cnn2c3c(c(C(=O)O)nc12)CCN3C1CCCCC1	253 to 255 °C
COc1cc(F)nc(NC(=O)NS(=O)(=O)c2ccccc2OS(C)(=O)=O)n1	168 to 169 °C
Fc1ccc2cc(C3=CCNCC3)sc2c1	155 to 157 °C
CC(C)C(NC(=O)c1ccc(C(=O)NCCCC(=O)O)cc1)C(=O)N1CCCC1C(=O)NC(C(=O)C(F)(F)F)C(C)C (mixture of isomers)	84 to 86 °C
CC/C=C/C(=O)NC(=O)OC(C)(C)C	78 to 79 °C
CCCCCS(=O)(=O)NC(=O)CCc1ccc(OCCOCCOC)cc1Oc1ncc(C(F)(F)F)cc1Cl	76 to 77.5 °C
CNc1cccc(OC)c1[N+](=O)[O-]	58 to 59 °C
C=C(Cl)COc1cc(C)nc(NCCCCCC)n1	36 to 37 °C
CC=CCCCn1cnc2c1c(=O)n(C)c(=O)n2C	58 to 64 °C
CC(C)(C)OC(=O)CCCCCCCCCC[N+](=O)[O-]	39 to 42 °C
CCCCCCCCCCCc1coc(N)n1	55 to 58 °C
Fc1cc(F)c(-c2c(Cl)nc3nccnc3c2Cl)c(F)c1	139 to 141 °C
S=C1NC2(CCCCC2)NC12CCCCC2	229 °C
COc1ccc(C=CC(=O)C2C(=O)C=C(C)OC2=O)cc1O (centres undefined)	217 to 219 °C
Cn1nc(C=O)cc1C(C)(C)CNC(=O)c1ccccc1	150 to 151 °C
Cc1nnc(-n2cc(C(=O)N3CCCC3)c3c4cc(F)ccc4n(C)c3c2=O)s1	299 to 301 °C
COC(=O)c1cc(=O)c2c(C)cc(Br)cc2[nH]1	258 to 259 °C
Sc1nnc(-c2ccc3c(c2)CCO3)o1	219 to 221 °C
O=C1C(=Cc2ccc(Cl)cc2)N2CCC1CC2	108 to 110 °C
CCc1c(CC(=O)NCCCCCCN)ccc(OC)c1OC	136 to 138 °C

SMILES	melting point
Cc1nc2cc(NC(=O)c3cc4cc(F)ccc4n3Cc3cccc(F)c3)cnc2s1	264 to 265 °C
COc1ccc(C=Cc2nnc(C(Cl)(Cl)Cl)o2)cc1	140 to 142 °C
CCOC(=O)CN1C[C@@H](C(N)=O)N(CC(=O)OCC)C[C@@H]1C(N)=O	> 260 °C
CCCn1c(=O)c2[nH]c(/C=C/c3ccco3)nc2n(CCC)c1=O	258 to 259 °C
CCOC(=O)CC(O)Cc1ccc([N+](=O)[O-])cc1 (centres undefined)	71 to 72 °C
COc1cc(C#N)cc(-c2ccc3c(c2)C(C)(C)OC(=O)N3)c1	254 to 255 °C
c1cnc2cc[nH]c2c1	126 to 128 °C
COC(=O)c1ccccc1S(=O)(=O)Nn1c(SC)nn(-c2nc(OC)cc(OC)n2)c1=O	179 °C
COc1ccc(C#N)cc1C=NO	142 to 144 °C
Cc1cc(C2=NOC(c3cc(Cl)cc(Cl)c3)(C(F)(F)F)C2)ccc1C(=O)NC1CSC1 (centres undefined)	158 to 159 °C
CCC(=O)N[C@@H](C)C(=O)N1CCC[C@H]1C(=O)NC	163 to 165 °C
COc1ccc(CSc2nnc(-c3ccc4[nH]ncc4c3)o2)cc1C#N	192 to 193 °C
CCc1nc2ccccc2c(=O)n1-c1ccc(F)cc1	178 °C
CCOC(=O)c1cc(O)c2cc3c(O)cc(C(=O)OCC)nc3c(N3CCCCCC3)c2n1	301 to 302 °C
Cc1ccc(-c2nc(O)cc(O)n2)cc1	314 °C
O=S1(=O)NCN(CCF)c2ccc(F)cc21	133 to 134 °C
COCc1nc(C=O)c[nH]1	100 to 103 °C
COc1ccc(Cl)cc1Nc1c(C#N)cnc2cc(OC)c(OC)cc12	200 to 202 °C
CC1(C)CC(=C[C@H]2[C@H](C(=O)O)C2(C)C)CC(C)(C)C1 (relative stereo)	116 °C
COc1c2occc2cc2cc(C(=O)O)c(=O)oc12	227 to 228 °C
O=C(O)CCCCCCCNS(=O)(=O)c1ccc(Cl)cc1	122 to 124 °C
CC(C)Oc1cc(C(=O)O)n(Cc2ncc(C(F)(F)F)cc2Cl)n1	124 to 125 °C
CCCCn1c(=O)c2c(NC)n[nH]c2n(CCCl)c1=O	270 to 272 °C

The next lines start with the values.

melting point	SMILES
139 to 143 °C	COc1cc2ncc(C#N)c(Nc3ccc(F)c(Cl)c3)c2cc1NC(=O)CC(CN1CCC(O)C1)N1CCC(O)C1 (centres undefined)
96 °C	Cc1cc(NC(=O)C(F)(c2ccccc2)c2nnn(CCCCCCCCCCCC(F)F)n2)c(C)c(C)c1O (centres undefined)
> 250 °C	CC(C)n1nc(-c2c(-c3ccccc3)nn3ccc(O)cc23)ccc1=O
250 °C	CC(=O)Nc1ccc(Oc2c(NCc3ccco3)cc(C(=O)O)cc2S(=O)(=O)NC(C)=O)cc1
200 to 202 °C	CN1C(=O)C(c2ccncc2)(c2cccc(-c3cc(F)ccc3F)c2)N=C1N (centres undefined)
124 to 126 °C	COc1ccc(S(=O)(=O)N(CCC(F)(F)F)c2ccccc2/C=C/c2ccncc2)cc1
149 to 152 °C	COc1ccc(O)c(C2C(=O)Nc3cccc(Br)c32)n1 (centres undefined)
166 to 168 °C	C/C(=N\OC(=O)c1ccc(CN2CCOCC2)cc1)[C@H]1CC[C@H]2[C@@H]3CCC4=CC(=O)CC[C@]4(C)[C@H]3CC[C@]12C
121 to 122 °C	Brc1c(-c2ccccc2)n[nH]c1Sc1ccccc1
187 to 188 °C	COc1ccccc1N1CCN(CCCNc2ncc3cc(-c4c(Cl)cccc4Cl)c(=O)n(C)c3n2)CC1
108 to 112 °C	C=CCN1CCc2cc(OC)c(O)cc2C1Cc1ccc(OC)c(OC)c1 (single isomer, unassigned; (+))
130 to 132 °C	OCc1ccc2cc(OCc3ccccc3)ccc2c1
242 °C	CN(c1cccc2cc(C3=NCC(CN4CCS(=O)(=O)CC4)S3)[nH]c12)S(=O)(=O)c1cccs1 (centres undefined)
75 °C	c1ccc(-c2ccon2)cc1
178 to 180 °C	O=C(CCl)c1cc2c(s1)SCCc1cc(=O)n(-c3ccc(Cl)cc3)nc1-2
77 to 80 °C	CSCC(=O)C(Cc1cccc2ccccc12)NC(=O)C(CC(C)C)NC(=O)OCc1ccccc1 (centres undefined)
112 to 115 °C	Cc1ccccc1C=CCN1CCc2nc(N)sc2CC1
88 °C	N#Cc1ccc(OCCCNCCO)cc1
138 °C	CCCNC(=O)N1c2ccc(S(=O)(=O)n3cc(-c4ccccc4)[nH]c3=O)cc2CC1C (centres undefined)
226 to 227 °C	CC(C)(c1ccccc1)N(C(N)=O)C(C)(C)c1ccccc1
255 to 265 °C	Oc1cc(O)c(-c2nc(-c3ccccc3)nc(-c3ccccc3)n2)cc1Cl
165 to 166 °C	CN1c2ccc(Cl)cc2C(c2ccccc2[N+](=O)[O-])=Nc2cccnc21
105 to 107 °C	Cc1cnc2ccc(-c3cccc(C(F)(F)F)c3)nn12
116 to 119 °C	CC1CC2C(C(O)CC3(C)C2CCC3(O)C(=O)COCc2ccccc2[N+](=O)[O-])C2(C)C=CC(=O)C=C12 (centres undefined)
83 °C	COc1ccc(COC(=O)c2cc(Br)nn2-c2ncccc2Cl)cc1
131 to 132 °C	O=C(O)Cc1cc2c(c(-c3ccccc3)c1)NC(C(F)(F)F)CC2 (centres undefined)
105 to 108 °C	CCOC(=O)c1ccc(N(CCO)C(=O)Nc2ccc(C3CCN(C(=O)C(F)(F)F)CC3)cc2)cc1

melting point	SMILES
54.5 to 55.5 °C	c1ccc(Oc2ccc(OCCCn3ccnc3)cc2)cc1
159 to 160 °C	COc1cc(C(=O)NS(=O)(=O)c2ccccc2)ccc1CBr
103 to 105 °C	N=C(NCc1ccc(Cl)cc1)Nc1cccc(C(F)(F)F)c1
282 °C	Cc1ccc(N2C(=O)C(O)=C(C(=O)c3ccc(C(C)C)cc3)C2c2ccc(OC(C)C)nc2)nn1 (centres undefined)
150 to 154 °C	CCOc1cccc(COc2ccc3c(c2)C=C(C(=O)O)CCS3(=O)=O)c1
218 to 220 °C	COc1cc(OCC2CCCO2)ccc1/C=C/c1cc(/C=C/c2ccc3cc[nH]c3c2)n[nH]1 (centres undefined)
133 to 135 °C	COc1ccc2nccc(NC(=O)N3CCN(CC(O)c4cnc5ccccc5n4)CC3)c2n1 (centres undefined)
61 to 62 °C	CCCCN(C)c1c(-c2ccc(OC)cc2)sc2ccccc12
110 to 121 °C	CCOc1ccc(-c2ccc(C#N)cc2)cc1C=O
159 to 162 °C	COc1cccc(COc2ccc(-c3cccc(NC(Cc4ccccc4)C(=O)O)c3)cc2)c1 (centres undefined)
98 to 100 °C	FC(F)(F)c1ccn(-c2cc(-c3ccc4c(c3)OCO4)nc3ccccc23)n1
254 to 256 °C	COc1cc2c(Nc3ccc(Cl)cc3F)ncnc2cc1OCCCC(=O)N1CCCC1
72 to 75 °C	c1ccc(CN2CCC(NCc3ccc(OCc4ccnc5ccccc45)cc3)CC2)cc1
135 to 137 °C	c1ccc(Cc2cnc(N3CCN(c4nc(-c5ccccc5)nc5ccccc45)CC3)nc2)cc1
136 to 137 °C	CCc1[nH]n(C2CCCC2)c2nc(Cc3ccc(OCCN4CCOCC4)cc3)nc(=O)c1-2
131 to 132 °C	COc1ccccc1N1CCN(C(=O)N(C)c2cc(C)c(C)nc2OC)CC1
150 to 152 °C	COc1ccc(COc2ccc(CC(=O)O)cc2Cl)cc1
158 to 160 °C	CC(C)c1ccc(N(Cc2ccc(N(C)C)cc2)C(=O)C2CCc3c(O)cccc32)cc1 (centres undefined)
88 to 91 °C	CCCC[C@H](NC(=O)[C@H](CC(C)C)NC(=O)COc1ccc(F)cc1)C(=O)CSCc1ccco1
280 to 289 °C	COc1ccc(/C=C/c2ccc3c(=O)[nH]ncc3c2)cc1
101 to 105 °C	COc1cc(NC(=O)Nc2ccc(C3CCN(C(=O)Nc4ccc(OCCO)cc4Cl)CC3)cc2)cc(OC)c1
205 to 208 °C	C[C@]1(COc2ccc3cc(N4CCC(Oc5ccc(OC(F)(F)F)cc5)CC4)ccc3c2)Cn2cc([N+](=O)[O-])nc2O1
182 to 185 °C	Cc1c(CN2CCc3c(c4cccc(Br)c4n3C)C2=O)ncn1S(=O)(=O)N(C)C
97 to 99 °C	CCCCCCCCCCCCCCCCCCOc1cc(OCc2ccccc2)cc(C(=O)O)c1
166 to 168 °C	CC(C)c1c(Sc2ccccc2)n(CC2=CCC(CO)C2)c(=O)[nH]c1=O (centres undefined)
186 °C	CC1(C)NC(=O)c2ccccc2N1CCCN1CCC(C(=O)c2ccc(F)cc2)CC1
